In PMC9820828, “Anti-Melanogenesis Effects of a Cyclic Peptide Derived from Flaxseed via Inhibition of CREB Pathway” (International Journal of Molecular Sciences, 2022):

What was measured:
Format in all cases: cell-based, mouse
[1] = system: B16F10 melanoma cells; test: Extracellular melanin secretion in α-MSH-stimulated cells; conditions: 48 h; for melanin (pigment) secretion: 12.5, 25 and 50 μM; for secretion of melanin: 6.25, 12.5 and 25 μM, dose-dependent
Method: (§1) B16F10 melanoma cells (1.5 × 10^5 cells/mL) were seeded in a 6-well plate and cultured overnight. Then, the culture media were replaced with phenol red-free media containing DMSO (vehicle) or α-MSH (melanogenesis inducer) for the identification of the color change caused by melanogenesis. The cells were treated with different concentrations of LOMIX (25, 50, and 100 μg/mL) or LO A, B (6.25, 12.5, and 25 μM), D, E, and F and G (12.5, 25, and 50 μM). Arbutin at 1 mM was used as a positive control. After 48 h of the incubation, the culture medium’s optical density was detected at 475 nm to measure the amount of extracellular melanin secretion. Meanwhile, the remaining cells were harvested with 1 mL cold PBS and lysed with a lysis buffer (50 mM Tris-HCl pH 7.5, 120 mM NaCl, 20 mM β-glycerophosphate pH 7.5, and 2% NP-40). After centrifuging at 12,000× g for 5 min., the cell pellets were dissolved in 10% DMSO in 1 M NaOH and incubated at 60 °C. The melanin contents were measured at 405 nm using a Synergy™ HTX microplate reader. All photos of melanin-secreted medium and intracellular melanin contents were collected.

[2] = system: B16F10 melanoma cells; test: Cell viability (MTT assay); conditions: for cell viability (MTT): B16F10 melanoma cells; for toxicity (MTT): at the concentration contained in LOMIX and at all concentrations (0–50 μM)
Method: Mouse-derived B16F10 melanoma cells were incubated in the DMEM medium supplemented with 10% (v/v) FBS and 1% streptomycin–penicillin solution at 37 °C and 5% CO2. Sub-culture was conducted by detaching the cells with trypsin-EDTA after reaching 90% confluence.
The effects of LOMIX and each LO compound on cell survival were determined using the MTT assay. B16F10 melanoma cells (100 μL of 1.5 × 10^5 cells/mL) were seeded in a 96-well plate with 100 μL of the testing sample [LOMIX (0–200 μg/mL) or LO (0–50 μM)]. After 2 days, MTT solution (10 μL) was added to each well, and cells were incubated for an additional 3 h in the dark. The reaction was stopped by adding 100 μL of 10% SDS complemented with 0.01 M HCl. Moreover, 5000 cells/well of B16F10 melanoma cells were incubated in 96-well plates to check the cytotoxicity of LOMIX in the presence of α-MSH. The 10 μL of MTT solution was added to the cells incubated with the LOMIX (50 and 100 μg/mL) and α-MSH (100 nM) for 0, 24, and 48 h. Subsequently, the stopping solution (100 μL) (10% SDS solution with 0.01 M HCl) was added after 3 h incubation. The absorbance was measured at 570 nm using Synergy™ HTX (Biotek Instruments Inc., Winooski, VT, USA).

[3] = system: PKA; test: Immunoblotting, phosphorylated PKA; conditions: 0–25 μM, 100 nM α-MSH, 24 h, B16F10 cell lysates, Western blotting
Method: (§2) To induce melanogenesis, 3 × 10^5 B16F10 melanoma cells per mL were treated with 100 nM of α-MSH. Subsequently, 1 mM of arbutin or LO A or B (0–25 μM) was administered to the culture media for 24 h. The cells were then harvested with 1 mL of cold PBS and lysed with lysis buffer containing protease inhibitors (20 mM Tris-HCl pH 7.5, 2 mM EDTA, 20 mM NaF, 150 mM NaCl, 50 mM β-glycerol phosphate, and 2% NP-40 containing 2 μg/mL of leupeptin, pepstatin, and aprotinin). The whole cell lysates were centrifuged at 12,000× g for 5 min to purify the intracellular protein. SDS-polyacrylamide gel electrophoresis (Bio-Rad, Hercules, CA, USA) was conducted to separate the equivalent protein contents according to size. The separated proteins were transferred to polyvinylidene fluoride membranes and blocked with 3% (w/v) bovine serum albumin (BSA) solution for at least 30 min at ambient temperature. They then were incubated overnight with primary antibodies (1:2500 dilution) at 4 °C. After three 10-min washes with 0.1% (w/v) Tween-20, the membranes were probed with HRP-conjugated secondary antibodies (1:2500 dilution). The signals of each protein sample were detected with enhanced chemiluminescence reagents.

[4] = system: MITF; test: Immunoblotting, MITF protein; conditions: 0–25 μM, 100 nM α-MSH, 24 h, B16F10 cell lysates, Western blotting
Method: as §2

[5] = system: TYRP-1; test: Real-time PCR, TYRP-1 mRNA; conditions: 0–25 μM, co-treatment with 100 nM α-MSH, 24 h, B16F10 cells
Method: (§3) B16F10 cells (3 × 10^5 cells/mL) stimulated by 100 nM α-MSH were treated with LOMIX (0–100 μg/mL), LO A or B (0–25 μM), or arbutin 1 mM for 24 h. The cells were lysed with 300 μL of TRI Reagent® to extract total RNA. Then, 1 μg of total RNA with Reverse Transcriptase M-MuLV (Thermo Fisher Scientific, Waltham, MA, USA) was utilized to synthesize cDNA according to the manufacturer’s instructions. Real-time PCR was conducted, as previously described.

[6] = system: TYRP-2; test: Real-time PCR, TYRP-2 mRNA; conditions: 0–25 μM, co-treatment with 100 nM α-MSH, 24 h, B16F10 cells
Method: as §3

[7] = system: Tyrosinase; test: Real-time PCR, Tyrosinase mRNA; conditions: 0–25 μM, co-treatment with 100 nM α-MSH, 24 h, B16F10 cells
Method: as §3

[8] = system: B16F10 melanoma cells; test: Intracellular melanin content in α-MSH-stimulated cells; conditions: for melanin synthesis (melanin contents): 6.25, 12.5 and 25 μM, α-MSH, 48 h, B16F10 cells; for suppression of the synthesis of melanin: 12.5 and 25 μM, B16F10 cell lines
Method: as §1

[9] = system: CREB; test: Immunoblotting, phosphorylated CREB; conditions: 0–25 μM, 100 nM α-MSH, 24 h, B16F10 cell lysates, Western blotting
Method: as §2

[10] = system: MITF; test: Real-time PCR, MITF mRNA; conditions: 0–25 μM, co-treatment with 100 nM α-MSH, 24 h, B16F10 cells
Method: as §3

| Substance | melanin (pigment) secretion [1] | cell viability (MTT) ([2]; 50 μM, 48 h) | toxicity (MTT) ([2]; B16F10 cells, 48 h) | phosphorylation of PKA [3] | protein level of MITF [4] | expression of TYRP1 at mRNA level [5] | secretion of melanin [1] | expression of TYRP-2 at mRNA level [6] | expression of tyrosinase at mRNA level [7] | melanin synthesis (melanin contents) [8] | suppression of the synthesis of melanin [8] | phosphorylation of CREB [9] | expression of MITF at mRNA level [10] | cell viability (MTT) ([2]; 25 μM, 48 h) | cell survival (MTT) ([2]; 50 μM, B16F10 cells, 48 h) | toxicity ([2]; 12.5 and 25 μM, B16F10 cell lines) |
| --- | --- | --- | --- | --- | --- | --- | --- | --- | --- | --- | --- | --- | --- | --- | --- | --- |
| [1–8-NαC],[1-(Rs,Ss)-MetO]-linusorb B1 [LO4] | decreased | not altered | did not show toxicity | – | – | – | – | – | – | – | – | – | – | – | – | – |
| [1–9-NαC]-linusorb B2 [LO2] | – | – | – | not PKA | decreased levels | downregulated | dramatically downregulated | suppressed | downregulated | decreased | up to 90% | blocked | downregulated | – | – | – |
| [1–9-NαC]-linusorb B3 [LO1] | – | – | – | suppressed | significantly decreased | effectively inhibited | dramatically downregulated | suppressed | effectively inhibited | decreased | up to 90% | suppressed | effectively inhibited | not altered | declined | without toxicity |
| [1–8-NαC],[1-(Rs,Ss)-MetO]-linusorb A2 [LO3] | decreased | not altered | did not show toxicity | – | – | – | – | – | – | – | – | – | – | – | – | – |
